{
  "source": "patent US20020064883A1",
  "about": "“Measurement and quantification of 17 ketosteroid-sulfates as a biomarker of biological age” (priority 2000, published 2002)",
  "tested_on": "Anabolic/Catabolic Index (ACI)",
  "assay": "Human clinical trial: effect of treatment on urinary Anabolic/Catabolic Index (ACI)",
  "format": "in vivo",
  "description": "The concentration of 17-KS-S in the sample was calculated from the ratio of the peak area of the compound of interest to that of the external standard multiplied by its concentration. The concentration of creatinine in urine was measured by a colorimetric method. The urinary Anabolic/Catabolic Index (ACI=X/Y) was calculated as a ratio of total 17-ketosteroid sulfate concentration (X, ng/μL) to creatinine concentration (Y, μg/μL).\nThere were two objectives in this example. The first was to investigate the ACI-age relationship using baseline information of ACI and the second was to investigate effects of four treatment groups on ACI.\nThere were 71 individuals for treatment allocation. They were identified with a number of 1 through 72 (69 was not used). Of these 71 individuals, five (subject identification numbers=3, 22, 24, 26 and 65) were not included in the data set of ACI measurements. Consequently, there were 66 individuals represented in the ACI information. Among the 66 individuals, three (subject ID=1, 9 and 60) had only baseline measurements. These three individuals contributed to the analysis of age/ACI relationship only. Therefore, the data set for looking at treatment effects consisted of 63 individuals. Not all of the 63 individuals have six serial observations.\nA 24-hour urine specimen was collected from each individual before treatment. The urine specimens were quickly aliquoted, frozen, and immediately shipped on dry ice by overnight service for analysis. A ratio of total 17-ketosteroid sulfate concentration (ng/μL) to creatinine concentration (mg/mL) was calculated and expressed as ACI. Subsequent to treatment urine specimens were collected and analyzed at 24 hours. […] The fitted line has a negative slope (estimate of the slope is −0.061239 and is statistically significant from zero with p-value being equal to 0.0034.). Pearson correlation is estimated to be −0.35510 (p=0.0034). These findings indicate that ACI level decreases with ages between 40 and 65.\nThis part of the analysis was performed to determine if any of three different treatments affect the ACI level. That is to check whether the ACI level changes under and after termination of treatment. There were four treatment groups, referred to as groups 1-4. The individuals in Group 1 were given a placebo. The individuals in Group 2 were treated with 7-keto DHEA (25 mg/day dosage). The individuals in Group 3 were treated with Longevity Signal Formula (LSV) (2.008 mg/day dosage). The individuals in Group 4 were treated with Longevity Signal Formula (LSV) and Renewal Herbal Formula (Renewal).\nFIG. 5 illustrates the plots of the individual profile for each treatment group for weeks 1-5. Each individual's serial observations are connected with a line to emphasize the trend over time. Measurements at week zero represent ACI prior treatment. Measurements at weeks 1-4 represent the ACI level after receiving treatments for 1-4 weeks respectively. Measurements at week 5 represent the ACI level three days after termination of treatment. FIG. 6 plots the mean responses at each point in time plus two standard errors.",
  "data": [
    {"smiles": "C[C@]12CC[C@H](O)CC1=CC(=O)[C@@H]1[C@@H]2CC[C@]2(C)C(=O)CC[C@@H]12", "note": "[7-keto DHEA]", "values": [
      {"measurement": "Effect of treatment on ACI level (in words)", "setting": "under treatment, weeks 1-4 vs baseline", "value": "does not change the ACI level at all"},
      {"measurement": "Mean of difference in ACI", "setting": "week 1 − week 0 (week 0 = baseline; paired t-test)", "value": "−0.04"},
      {"measurement": "Mean of difference in ACI", "setting": "week 2 − week 0", "value": 0.20},
      {"measurement": "Mean of difference in ACI", "setting": "week 2 − week 1", "value": 0.23},
      {"measurement": "Mean of difference in ACI", "setting": "week 3 − week 0", "value": "−0.12"},
      {"measurement": "Mean of difference in ACI", "setting": "week 3 − week 1", "value": "−0.08"},
      {"measurement": "Mean of difference in ACI", "setting": "week 3 − week 2", "value": "−0.31"},
      {"measurement": "Mean of difference in ACI", "setting": "week 4 − week 0", "value": "−0.12"},
      {"measurement": "Mean of difference in ACI", "setting": "week 4 − week 1", "value": "−0.09"},
      {"measurement": "Mean of difference in ACI", "setting": "week 4 − week 2", "value": "−0.32"},
      {"measurement": "Mean of difference in ACI", "setting": "week 4 − week 3", "value": "−0.01"},
      {"measurement": "Mean of difference in ACI", "setting": "week 5 − week 0 (week 5 = three days after termination of treatment)", "value": "−0.10"},
      {"measurement": "Mean of difference in ACI", "setting": "week 5 − week 1", "value": "−0.07"},
      {"measurement": "Mean of difference in ACI", "setting": "week 5 − week 2", "value": "−0.30"},
      {"measurement": "Mean of difference in ACI", "setting": "week 5 − week 3", "value": 0.01},
      {"measurement": "Mean of difference in ACI", "setting": "week 5 − week 4", "value": 0.02}
    ]}
  ]
}
